The test system of test [1] is rodent brain tumor glioblast cell line 7080. In words: Glioblastoma cell growth inhibition, cell line 7080. The format is cell-based. The settings on record: all concentrations (0.5 μm, 1 μM, and 2 μM). The procedure: (§1) Cell growth experiments were performed to determine the effect of the compounds according to The present disclosure on the growth of brain tumor glioblast cells. Specifically, the rodent brain tumor glioblast cell line 7080 and the human glioblast cell line U87 were treated with the compound of Example 2 according to The present disclosure to determine the cell growth inhibitory effects, and the results are shown in FIG. 18.

The next test concerns Tg−APP/PS1 animal models. In words: Tg-APPswe/PS1dE9 Alzheimer's animal model. The class given is in vivo, mice. The protocol:
The Tg−APP/PS1 animal models were used to determine the effect of compounds of Examples according to The present disclosure on Alzheimer's disease. This animal models show amyloid plaque deposition as early as 6.5 months and severe cognitive impairment at 6 to 8 months. The Tg−APP/PS1 animal models were administered with vehicle or the Example compound (i.e., Example 2 was used) at 30 mg/kg or 10 mg/kg every other day from 6.5 to 8 months. All behavioral testing occurred between 7.5 and 8 months, and brain tissues for biopsy were obtained by perfusion after behavioral testing. To confirm amyloid beta plaques, the brain tissues obtained in the above part (1)_1) were incubated in 1% Thioflavin-S solution for 8 to 20 minutes and washed with ethanol and distilled water. The stained tissues were sectioned and the number of plaques or stained areas were quantified. To confirm the changes in astrocytes and microglia by administration of oxadiazole derivative compounds, immunostaining was performed using GFAP antibody, a marker for astrocytes, and Iba1 antibody, a marker for microglia. The novel object recognition (NOR) and novel location recognition (NLR) tests are behavioral assessments that evaluate memory based on the disparity in search time between a novel object or an object relocated to a new position compared to a familiar object. Each experimental animal was placed in a square box with two identical objects and allowed to familiarize for 10 minutes (familiarization #1). Ten minutes after the first familiarization was completed, the objects used in the first familiarization were returned to their original position and subjected to a second familiarization (familiarization #2). After 2 hours, only one of the objects used in familiarization was replaced with a novel object and placed in the same position and the exploration time of the familiar and novel objects (2 h NOR) was determined. After 15 minutes, the familiar object was repositioned, and the exploration time of both objects was checked (NLR). After 22 hours (24 hours after familiarization), the novel object and the familiar object were placed and the exploration time was determined (24 h NOR). water maze test is frequently used to assess memory functions such as memory formation, consolidation, and retrieval effects by assessing the time it takes for an experimental animal to find a platform beneath the water surface, relying on environmental cues. Therefore, the treatment effect on Alzheimer's disease was confirmed using the model used in the water maze test above. The passive avoidance test is a fear-motivated test mainly used to evaluate short-term or long-term memory in experimental animals. The passive avoidance test evaluates fear memory by utilizing the innate tendency of experimental animals to prefer dark areas and avoid bright areas, delivering an electric shock to the paw upon entry into a dark area, and measuring the time it takes for the animal to re-enter the dark area upon re-exposure to the same environment.

For test [2], the system named is human glioblast cell line U87. Kind of test: Glioblastoma cell growth inhibition, U87. The conditions noted are these: 2 μM, starting 4 days after treatment. The class given is cell-based. The protocol: as §1
The next test has as its system BV2 cells. In words: Microglia (BV2) migration, transwell. The class given is cell-based, mouse. The conditions noted are these: LPS 1 μg/ml, 24 hours, compound 10 μM. The procedure: To determine the migration level of BV2 cells, 8 μm-sized transwells (35224, SPL) were used. 1×10^5 BV2 cells were seeded into the insertion transwells, and the lower wells were treated with the compound of Example 2 or Apocynin (NOX inhibitor) along with lipopolysaccharide (LPS, 1 μg/ml) as stimulus. After 24 hours of incubation, BV2 cells that migrated to the bottom of the insertion transwells were stained with crystal violet.

Where [3] appears, read: parietal cortex, piriform cortex, and hippocampus.

Take `O=C(Nc1nnc(-c2ccccc2)o1)c1ccc(F)c(C(F)(F)F)c1` [Example 2, 4-fluoro-N-(5-phenyl-1,3,4-oxadiazol-2-yl)-3-(trifluoromethyl)benzamide]: the “glioma cell growth of glioblast cell line 7080” value in test [1] is on record as “strongly inhibited”. Besides, in the test on Tg−APP/PS1 animal models (30 mg/kg), the “exploration time for novel objects than familiar objects (2 h NOR)” value is “significantly increase”, the “exploration time for novel objects than familiar objects (24 h NOR)” value was “remarkable increase” and the “exploration time for objects located in a novel location (NLR)” value is listed as “significant increase”. Moreover, in the test with Tg−APP/PS1 animal models (30 mg/kg or 10 mg/kg every other day from 6.5 to 8 months), the “amyloid plaque deposition (Thioflavin-S staining)” value is on record as “highly significant ameliorative effect”. Moreover, the “water maze test, time required to locate platform” value in the test with Tg−APP/PS1 animal models (five consecutive days of training) is “memory acquisition ability equivalent to wild-type mice”. In the test with Tg−APP/PS1 animal models (setting [3]), the “activation of astrocytes (GFAP immunostaining)” value is “effectively reduced” and the “activation of microglia (Iba1 immunostaining)” value is listed as “effectively reduced”. Moreover, in the test on Tg−APP/PS1 animal models (post-shock, 24 to 120 hours), the “passive avoidance test, time to enter the dark area” value is reported as “fear memory retention comparable to that of wild-type animals”. Besides, the “cell growth of human glioblast cell line U87” value in test [2] is “cell growth inhibition was observed”. In addition, the “LPS-induced increase in number of migrated BV2 cells” value with BV2 cells is “offset”.

For the origin of these results see patent US20250051293A1, “NOVEL OXADIAZOLE DERIVATIVE AND USE THEREOF” (CELROS BIOTECH, priority 2021, published 2025).
